Source: patent publication US20050119489A1, “4-Sulfide/sulfoxide/sulfonyl-1h-pyrazolyl derivative compounds, for use in diseases associated with the 5-ht2c receptor” (priority 2001, published 2005)
Where a name gives a salt, the structure may show the parent alone.

Key:
[1] = biological target: T1, 5-HT2C receptor (Homo sapiens, UniProt P28335); settings: cited from earlier work
T1 sequence (P28335 33-458): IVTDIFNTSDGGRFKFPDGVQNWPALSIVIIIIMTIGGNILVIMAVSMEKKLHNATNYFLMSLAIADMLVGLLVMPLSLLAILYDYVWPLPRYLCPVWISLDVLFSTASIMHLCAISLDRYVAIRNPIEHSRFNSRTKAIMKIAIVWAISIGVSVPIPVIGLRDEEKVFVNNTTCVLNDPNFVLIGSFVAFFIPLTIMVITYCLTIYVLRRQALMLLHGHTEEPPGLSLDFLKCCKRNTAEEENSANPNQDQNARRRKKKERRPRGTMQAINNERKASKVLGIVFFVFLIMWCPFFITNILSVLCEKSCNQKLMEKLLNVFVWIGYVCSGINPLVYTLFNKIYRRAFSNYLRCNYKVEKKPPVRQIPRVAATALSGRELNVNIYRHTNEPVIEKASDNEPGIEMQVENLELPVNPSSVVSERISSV

[2] = biological target: 5-HT2 receptors; settings: cited from earlier work

SMILES | melting point [°C] | further results
CCc1nn(C[C@H](C)N)c(CC)c1S(=O)(=O)c1ccc(N2CCCC(C)(C)C2=O)cc1.Cl | 131 | 
CCc1nn(CCNC)c(CC)c1Sc1ccc(F)cc1.O=C(O)/C=C\C(=O)O | 95 to 97 | 
CCc1nn(CC(C)(C)N)c(CC)c1Sc1ccc(F)cc1.O=C(O)/C=C\C(=O)O | 120 to 122 | 
CCc1nn(C(C)CN)c(CC)c1Sc1ccc(F)cc1.O=C(O)/C=C\C(=O)O (stereo not drawn) | 162 | 
Cc1cc2c(cc1Cl)N(C(=O)Nc1ccc(Oc3cccnc3C)nc1)CC2 [SB-242084] |  | selectivity as 5-HT2C receptor antagonist [1]: at least 100 fold
Cc1nc2sccn2c(=O)c1CCN1CCC(=C(c2ccc(F)cc2)c2ccc(F)cc2)CC1 [ritanserin] |  | pKi for the 5-HT2 receptors [2]: 8.9; selectivity for the 5-HT2 receptors over 5-HT, receptors [2]: 10,000 fold

Further lines, with some results ahead:

melting point [°C] | SMILES | further results
185 to 188 | Cc1nn(CCN)c(C)c1Sc1ccccc1 (as salt: HCl) [Example 2, 2-[3,5-dimethyl-4-(phenylsulfanyl)-1H-pyrazol-1-yl]ethylamine] | 
167 | CCc1nn(C(C)C(N)=O)c(CC)c1Sc1ccc(F)cc1 (stereo not drawn) (as salt: hydrochloride) | 
148 | CCc1nn(CCN)c(CC)c1Sc1nnnn1C (as salt: salt) [Example 204] | 
154 | CCc1nn(CCN)c(CC)c1Sc1nccc(C(F)(F)F)n1 (as salt: salt) [Example 205] | 
84 to 86 | CCc1nn(CCNC)c(CC)c1S(=O)(=O)c1ccc(N2C(=O)CC(C)(C)C2=O)cc1 [Example 160, 1-[4-({3,5-diethyl-1-[2-(methylamino)ethyl]-1H-pyrazol-4-yl}sulfonyl)phenyl]-3,3-dimethyl-2,5-pyrrolidinedione] | 
